Experiments:
Format in all cases: in vivo
[1] = system: sedge, umbrella (small-flower umbrella sedge, Cyperus difformis); test: Test B flooded paddy test, umbrella sedge; conditions: 250 g ai/ha, applied to paddy water, visual rating after 13 to 15 days, scale 0 (no effect) to 100 (complete control)
Method in brief: (§1)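 In-water treatment: compound dosed into 3 cm flood over soil, water level unchanged throughout. Controls run alongside; visual assessment at day 13–15.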

corn (Zea mays) = test: Test A postemergence, corn; conditions: visual injury, 0 to 100 scale (0 no effect, 100 complete control), approximately 10 days
Method in brief: (§2)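 Injury scores (0 no effect, 100 complete control) were assigned by visually comparing treated with untreated plants after about 10 days of greenhouse growth. Seeds for soil treatment were sown into a loam and sand blend, while plants for foliar treatment grew in pots of that same blend.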

[2] = system: blackgrass (Alopecurus myosuroides); test: Test A postemergence, blackgrass; conditions: visual injury, 0 to 100 scale (0 no effect, 100 complete control), approximately 10 days
Method in brief: as §2

[3] = system: pigweed (Amaranthus retroflexus); test: Test A postemergence, pigweed; conditions: visual injury, 0 to 100 scale (0 no effect, 100 complete control), approximately 10 days
Method in brief: as §2

[4] = system: ryegrass, Italian (Lolium multiflorum); test: Test A postemergence, Italian ryegrass; conditions: visual injury, 0 to 100 scale (0 no effect, 100 complete control), approximately 10 days
Method in brief: as §2

rice (Oryza sativa) = test: Test B flooded paddy test, rice; conditions: 250 g ai/ha, applied to paddy water, visual rating after 13 to 15 days, scale 0 (no effect) to 100 (complete control)
Method in brief: as §1

[5] = system: ducksalad (Heteranthera limosa); test: Test B flooded paddy test, ducksalad; conditions: 250 g ai/ha, applied to paddy water, visual rating after 13 to 15 days, scale 0 (no effect) to 100 (complete control)
Method in brief: as §1

[6] = system: barnyardgrass (Echinochloa crus-galli); test: Test A preemergence, barnyardgrass; conditions: 0 to 100 scale (0 no effect, 100 complete control)
Method in brief: as §2

[7] = system: ragweed (common ragweed, Ambrosia elatior); test: Test A postemergence, ragweed; conditions: visual injury, 0 to 100 scale (0 no effect, 100 complete control), approximately 10 days
Method in brief: as §2

kochia (Kochia scoparia) [8] = test: Test A postemergence, kochia; conditions: visual injury, 0 to 100 scale (0 no effect, 100 complete control), approximately 10 days
Method in brief: as §2

[9] = system: pigweed (Amaranthus retroflexus); test: Test A preemergence, pigweed; conditions: 0 to 100 scale (0 no effect, 100 complete control)
Method in brief: as §2

[10] = system: galium (catchweed bedstraw, Galium aparine); test: Test A postemergence, galium; conditions: visual injury, 0 to 100 scale (0 no effect, 100 complete control), approximately 10 days
Method in brief: as §2

kochia (Kochia scoparia) [11] = test: Test A preemergence, kochia; conditions: 0 to 100 scale (0 no effect, 100 complete control)
Method in brief: as §2

[12] = system: foxtail, giant (Setaria faberii); test: Test A postemergence, giant foxtail; conditions: visual injury, 0 to 100 scale (0 no effect, 100 complete control), approximately 10 days
Method in brief: as §2

[13] = system: barnyardgrass (Echinochloa crus-galli); test: Test B flooded paddy test, barnyardgrass; conditions: 250 g ai/ha, applied to paddy water, visual rating after 13 to 15 days, scale 0 (no effect) to 100 (complete control)
Method in brief: as §1

[14] = system: foxtail, giant (Setaria faberii); test: Test A preemergence, giant foxtail; conditions: 0 to 100 scale (0 no effect, 100 complete control)
Method in brief: as §2

[15] = system: wheat (Triticum aestivum); test: Test A postemergence, wheat; conditions: visual injury, 0 to 100 scale (0 no effect, 100 complete control), approximately 10 days
Method in brief: as §2

[16] = system: ryegrass, Italian (Lolium multiflorum); test: Test A preemergence, Italian ryegrass; conditions: 0 to 100 scale (0 no effect, 100 complete control)
Method in brief: as §2

[17] = system: ragweed (common ragweed, Ambrosia elatior); test: Test A preemergence, ragweed; conditions: 0 to 100 scale (0 no effect, 100 complete control)
Method in brief: as §2

[18] = system: barnyardgrass (Echinochloa crus-galli); test: Test A postemergence, barnyardgrass; conditions: visual injury, 0 to 100 scale (0 no effect, 100 complete control), approximately 10 days
Method in brief: as §2

SMILES | Plant response rating, Sedge, Umbrella (Flood) [1] | Plant response rating, Corn (corn (Zea mays); 125 g ai/ha) | Plant response rating, Corn (corn (Zea mays); 500 g ai/ha) | Plant response rating, Blackgrass ([2]; 125 g ai/ha) | Plant response rating, Blackgrass ([2]; 500 g ai/ha) | Plant response rating, Pigweed ([3]; 125 g ai/ha) | Plant response rating, Pigweed ([3]; 500 g ai/ha) | Plant response rating, Ryegrass, Italian ([4]; 125 g ai/ha) | Plant response rating, Ryegrass, Italian ([4]; 500 g ai/ha) | Plant response rating, Rice (Flood) (rice (Oryza sativa)) | Plant response rating, Ducksalad (Flood) [5] | Plant response rating, Barnyardgrass ([6]; 125 g ai/ha) | Plant response rating, Barnyardgrass ([6]; 500 g ai/ha) | Plant response rating, Ragweed ([7]; 125 g ai/ha) | Plant response rating, Ragweed ([7]; 500 g ai/ha) | Plant response rating, Kochia (kochia (Kochia scoparia) [8]; 125 g ai/ha) | Plant response rating, Kochia (kochia (Kochia scoparia) [8]; 500 g ai/ha) | Plant response rating, Pigweed ([9]; 125 g ai/ha) | Plant response rating, Pigweed ([9]; 500 g ai/ha) | Plant response rating, Galium ([10]; 125 g ai/ha) | other results
CN1CC(c2cccc(OC(F)(F)C(F)OC(F)(F)F)c2)C(C(=O)Nc2ccccc2F)C1=O (stereo not drawn) [Compound 41] | 0 | 0 | 40 | 0 | 30 | 40 | 80 | 0 | 20 | 20 | 100 | 20 | 90 | 0 | 0 | 20 | 60 | 70 | 90 | 40 | Plant response rating, Galium ([10]; 500 g ai/ha): 60; Plant response rating, Kochia (kochia (Kochia scoparia) [11]; 125 g ai/ha): 30; Plant response rating, Kochia (kochia (Kochia scoparia) [11]; 500 g ai/ha): 60; Plant response rating, Foxtail, Giant ([12]; 125 g ai/ha): 50; Plant response rating, Foxtail, Giant ([12]; 500 g ai/ha): 70; Plant response rating, Barnyardgrass (Flood) [13]: 0; Plant response rating, Foxtail, Giant ([14]; 125 g ai/ha): 80; Plant response rating, Foxtail, Giant ([14]; 500 g ai/ha): 90; Plant response rating, Wheat ([15]; 125 g ai/ha): 0; Plant response rating, Wheat ([15]; 500 g ai/ha): 40; Plant response rating, Ryegrass, Italian ([16]; 125 g ai/ha): 20; Plant response rating, Ryegrass, Italian ([16]; 500 g ai/ha): 60; Plant response rating, Ragweed ([17]; 125 g ai/ha): 20; Plant response rating, Ragweed ([17]; 500 g ai/ha): 70; Plant response rating, Barnyardgrass ([18]; 125 g ai/ha): 50; Plant response rating, Barnyardgrass ([18]; 500 g ai/ha): 50
O=C1NCC(c2cccc(OCC3OCCO3)c2)C1C(=O)Nc1ccccc1C(F)(F)F (stereo not drawn) [Compound 5] | 0 | 0 | 0 | 0 | 0 | 0 | 0 | 20 | 20 | 0 | 65 | 0 | 50 | 0 | 0 | 0 | 0 | 0 | 30 | 0 | Plant response rating, Galium ([10]; 500 g ai/ha): 0; Plant response rating, Kochia (kochia (Kochia scoparia) [11]; 125 g ai/ha): 0; Plant response rating, Kochia (kochia (Kochia scoparia) [11]; 500 g ai/ha): 0; Plant response rating, Foxtail, Giant ([12]; 125 g ai/ha): 20; Plant response rating, Foxtail, Giant ([12]; 500 g ai/ha): 50; Plant response rating, Barnyardgrass (Flood) [13]: 0; Plant response rating, Foxtail, Giant ([14]; 125 g ai/ha): 30; Plant response rating, Foxtail, Giant ([14]; 500 g ai/ha): 90; Plant response rating, Wheat ([15]; 125 g ai/ha): 0; Plant response rating, Wheat ([15]; 500 g ai/ha): 0; Plant response rating, Ryegrass, Italian ([16]; 125 g ai/ha): 0; Plant response rating, Ryegrass, Italian ([16]; 500 g ai/ha): 0; Plant response rating, Ragweed ([17]; 125 g ai/ha): 0; Plant response rating, Ragweed ([17]; 500 g ai/ha): 0; Plant response rating, Barnyardgrass ([18]; 125 g ai/ha): 0; Plant response rating, Barnyardgrass ([18]; 500 g ai/ha): 20

Source: patent publication US10405547B2, “Substituted cyclic amides as herbicides” (FMC Corporation, priority 2015, dated 2019)
